Values after ≈ are worked out from the molar mass of the structure shown. Read-outs that look alike come from different tables or passages of the source.
Columns and labels:
[1] = test system: Providencia rettgeri ATCC 9250; assay: Antibacterial activity, MIC; assay type: cell-based; conditions: ATCC9250, agar two-fold dilution, 37° C., 20 hours
Method in brief: (§1)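 Incubation at 37 °C for 20 h followed inoculation of 2 μl standard strain (10^7 CFU/ml) onto agar carrying the compound. Compound was incorporated into Mueller-Hinton agar as two-fold serial dilutions.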

[2] = test system: Pseudomonas aeruginosa ATCC 27853; assay: Antibacterial activity, MIC; assay type: cell-based; conditions: ATCC27853, ATCC 27853, agar two-fold dilution, 37° C., 20 hours, read-out: MIC
Method in brief: as §1

[3] = test system: Bacillus cereus ATCC 11778; assay: Antibacterial activity, MIC; assay type: cell-based; conditions: ATCC11778, ATCC 11778, agar two-fold dilution, 37° C., 20 hours, read-out: MIC
Method in brief: as §1

[4] = test system: Pseudomonas aeruginosa ATCC 25619; assay: Antibacterial activity, MIC; assay type: cell-based; conditions: ATCC25619, ATCC 25619, agar two-fold dilution, 37° C., 20 hours, read-out: MIC
Method in brief: as §1

[5] = test system: Enterobacter aerogenes ATCC 29751; assay: Antibacterial activity, MIC; assay type: cell-based; conditions: Klebsiella aerogenes, ATCC29751; ATCC 29751; agar two-fold dilution, 37° C., 20 hours; read-out: MIC
Method in brief: as §1

[6] = test system: Staphylococcus aureus ATCC 6538p; assay: Antibacterial activity, MIC; assay type: cell-based; conditions: ATCC6538P, ATCC 6538p, agar two-fold dilution, 37° C., 20 hours, read-out: MIC
Method in brief: as §1

[7] = test system: Proteus vulgaris ATCC 6059; assay: Antibacterial activity, MIC; assay type: cell-based; conditions: ATCC6059, ATCC 6059, agar two-fold dilution, 37° C., 20 hours, read-out: MIC
Method in brief: as §1

[8] = test system: Escherichia coli ATCC 10536; assay: Antibacterial activity, MIC; assay type: cell-based; conditions: ATCC10536, agar two-fold dilution, 37° C., 20 hours
Method in brief: as §1

[9] = test system: Serratia marcescens ATCC 27117; assay: Antibacterial activity, MIC; assay type: cell-based; conditions: ATCC27117, ATCC 27117, agar two-fold dilution, 37° C., 20 hours, read-out: MIC
Method in brief: as §1

[10] = test system: Escherichia coli ATCC 25922; assay: Antibacterial activity, MIC; assay type: cell-based; conditions: ATCC25922, agar two-fold dilution, 37° C., 20 hours
Method in brief: as §1

[11] = test system: Proteus mirabilis ATCC 25933; assay: Antibacterial activity, MIC; assay type: cell-based; conditions: ATCC25933, ATCC 25933, agar two-fold dilution, 37° C., 20 hours, read-out: MIC
Method in brief: as §1

[12] = test system: Salmonella typhimurium ATCC 14028; assay: Antibacterial activity, MIC; assay type: cell-based; conditions: Salmonella enterica; ATCC 14028; agar two-fold dilution, 37° C., 20 hours; read-out: MIC
Method in brief: as §1

[13] = test system: Enterobacter cloacae ATCC 27508; assay: Antibacterial activity, MIC; assay type: cell-based; conditions: ATCC27508, ATCC 27508, agar two-fold dilution, 37° C., 20 hours, read-out: MIC
Method in brief: as §1

[14] = test system: Acinetobacter calcoaceticus ATCC 15473; assay: Antibacterial activity, MIC; assay type: cell-based; conditions: ATCC15473, ATCC 15473, agar two-fold dilution, 37° C., 20 hours, read-out: MIC
Method in brief: as §1

[15] = test system: Staphylococcus aureus ATCC 10537; assay: Antibacterial activity, MIC; assay type: cell-based; conditions: ATCC10537, ATCC 10537, agar two-fold dilution, 37° C., 20 hours, read-out: MIC
Method in brief: as §1

[16] = test system: Pseudomonas aeruginosa ATCC 10145; assay: Antibacterial activity, MIC; assay type: cell-based; conditions: ATCC10145, ATCC 10145, agar two-fold dilution, 37° C., 20 hours, read-out: MIC
Method in brief: as §1

[17] = test system: Micrococcus luteus ATCC 9341; assay: Antibacterial activity, MIC; assay type: cell-based; conditions: ATCC9341, ATCC 9341, agar two-fold dilution, 37° C., 20 hours, read-out: MIC
Method in brief: as §1

[18] = test system: Bacillus megaterium ATCC 9885; assay: Antibacterial activity, MIC; assay type: cell-based; conditions: Priestia megaterium, ATCC9885; ATCC 9885; agar two-fold dilution, 37° C., 20 hours; read-out: MIC
Method in brief: as §1

[19] = test system: Citrobacter freundii ATCC 8090; assay: Antibacterial activity, MIC; assay type: cell-based; conditions: ATCC8090, ATCC 8090, agar two-fold dilution, 37° C., 20 hours, read-out: MIC
Method in brief: as §1

[20] = test system: Morganella morganii ATCC 8076h; assay: Antibacterial activity, MIC; assay type: cell-based; conditions: ATCC8076H, agar two-fold dilution, 37° C., 20 hours
Method in brief: as §1

[21] = test system: Staphylococcus epidermidis ATCC 12228; assay: Antibacterial activity, MIC; assay type: cell-based; conditions: ATCC12228, ATCC 12228, agar two-fold dilution, 37° C., 20 hours, read-out: MIC
Method in brief: as §1

[22] = test system: Streptococcus faecalis ATCC 29212; assay: Antibacterial activity, MIC; assay type: cell-based; conditions: Enterococcus faecalis, ATCC29212; ATCC 29212; agar two-fold dilution, 37° C., 20 hours; read-out: MIC
Method in brief: as §1

[23] = test system: Shigella sonnei ATCC 11060; assay: Antibacterial activity, MIC; assay type: cell-based; conditions: ATCC11060, ATCC 11060, agar two-fold dilution, 37° C., 20 hours, read-out: MIC
Method in brief: as §1

[24] = test system: Shigella flexneri ATCC 11836; assay: Antibacterial activity, MIC; assay type: cell-based; conditions: ATCC11836, agar two-fold dilution, 37° C., 20 hours
Method in brief: as §1

[25] = test system: Klebsiella pneumoniae ATCC 10031; assay: Antibacterial activity, MIC; assay type: cell-based; conditions: ATCC10031, ATCC 10031, agar two-fold dilution, 37° C., 20 hours, read-out: MIC
Method in brief: as §1

[26] = In-vivo absorbency (plasma concentrations & pharmacokinetic parameters); set-up: species or system SD rat (male); conditions: plasma, SD male rat, iv 20 mg/kg; for half-life: rat, iv, 20 mg/kg
Text: The blood samples from the femoral vein of the rats were taken every hour after administration, and analyzed by bio-assay(agar well method).
Tested animal: SD male Rat (220~340 g)

[27] = as above; set-up: species or system SD rat (male); conditions: plasma, SD male rat, iv 20 mg/kg, read-out: Plasma Conc.
Klebsiella pneumoniae = assay: Antibacterial activity against clinically isolated strains, MIC; assay type: cell-based; conditions: 10 clinical isolates, broth microdilution test
Pseudomonas aeruginosa = assay: as above; assay type: cell-based
[28] = test system: Staphylococcus aureus methicillin resistant; assay: as above; assay type: cell-based; conditions: methicillin resistant, 7 clinical isolates, broth microdilution test
Escherichia coli = assay: as above; assay type: cell-based; conditions: 38 clinical isolates, broth microdilution test
[29] = test system: Staphylococcus aureus methicillin susceptible; assay: as above; assay type: cell-based

Structure (SMILES)	MIC [1] [µg/mL]	MIC [2] [µg/mL]	MIC [3] [µg/mL]	MIC [4] [µg/mL]	MIC [5] [µg/mL]	MIC [6] [µg/mL]	MIC [7] [µg/mL]	MIC [8] [µg/mL]	MIC [9] [µg/mL]	MIC [10] [µg/mL]	MIC [11] [µg/mL]	MIC [12] [µg/mL]	MIC [13] [µg/mL]	MIC [14] [µg/mL]	MIC [15] [µg/mL]	MIC [16] [µg/mL]	MIC [17] [µg/mL]	MIC [18] [µg/mL]	MIC [19] [µg/mL]	MIC [20] [µg/mL]	also measured
CC[n+]1c(N)cc(N)nc1SCC1=C(C(=O)[O-])N2C(=O)C(NC(=O)/C(=N\OCC(=O)O)c3csc(N)n3)C2SC1 (centres unmarked) [Compound I-8]	0.016 (≈ 0.0262 µM)	2 (≈ 3.28 µM)	64 (≈ 105 µM)	2 (≈ 3.28 µM)	1 (≈ 1.64 µM)	4 (≈ 6.56 µM)	0.016 (≈ 0.0262 µM)	0.031 (≈ 0.0508 µM)	0.031 (≈ 0.0508 µM)	0.031 (≈ 0.0508 µM)	0.031 (≈ 0.0508 µM)	0.063 (≈ 0.103 µM)	≤ 0.008	8 (≈ 13.1 µM)	2 (≈ 3.28 µM)	4 (≈ 6.56 µM)	0.13 (≈ 0.213 µM)	0.5 (≈ 0.82 µM)	0.031 (≈ 0.0508 µM)	≤ 0.008	MIC [21]: 1 µg/mL (≈ 1.64 µM); MIC [22]: > 128 µg/mL; MIC [23]: 0.031 µg/mL (≈ 0.0508 µM); MIC [24]: 0.016 µg/mL (≈ 0.0262 µM); MIC [25]: 0.016 µg/mL (≈ 0.0262 µM); concentration at 1 h ([26]; 60 min, read-out: Plasma Conc.): 8700 ng/mL; concentration at 2 h ([26]; 120 min, read-out: Plasma Conc.): 2700 ng/mL; AUC ([26]; two compartment model): 43400 ng·h/mL; half-life ([26]; two compartment model, read-out: T1/2 (α)): 6 min; half-life ([26]; two compartment model, read-out: T1/2 (β)): 32 min; concentration at 1 min ([27]; 1 min): 121000 ng/mL; concentration at 2.5 min ([27]; 2.5 min): 92000 ng/mL; concentration at 5 min ([27]; 5 min): 64000 ng/mL; concentration at 10 min ([27]; 10 min): 48000 ng/mL; concentration at 20 min ([27]; 20 min): 36000 ng/mL; concentration at 40 min ([27]; 40 min): 15000 ng/mL
CCO/N=C(\C(=O)NC1C(=O)N2C(C(=O)[O-])=C(CSc3nc(N)cc(N)[n+]3C)CSC12)c1nsc(N)n1 (centres unmarked) [Compound I-20]	≤ 0.008	2 (≈ 3.53 µM)	32 (≈ 56.5 µM)	1 (≈ 1.76 µM)	0.25 (≈ 0.441 µM)	0.5 (≈ 0.882 µM)	1 (≈ 1.76 µM)	0.13 (≈ 0.229 µM)	0.25 (≈ 0.441 µM)	0.13 (≈ 0.229 µM)	0.5 (≈ 0.882 µM)	0.5 (≈ 0.882 µM)	0.016 (≈ 0.0282 µM)	2 (≈ 3.53 µM)	0.25 (≈ 0.441 µM)	4 (≈ 7.06 µM)	0.031 (≈ 0.0547 µM)	0.13 (≈ 0.229 µM)	0.13 (≈ 0.229 µM)	0.016 (≈ 0.0282 µM)	MIC [21]: 0.25 µg/mL (≈ 0.441 µM); MIC [22]: 32 µg/mL (≈ 56.5 µM); MIC [23]: 0.13 µg/mL (≈ 0.229 µM); MIC [24]: 0.031 µg/mL (≈ 0.0547 µM); MIC [25]: 0.016 µg/mL (≈ 0.0282 µM); MIC50 (Klebsiella pneumoniae): 0.13 µg/mL (≈ 0.229 µM); MIC90 (Klebsiella pneumoniae; read-out: MIC 90%): 0.13 µg/mL (≈ 0.229 µM); MIC90 (Pseudomonas aeruginosa): 16 µg/mL (≈ 28.2 µM); MIC50 (Pseudomonas aeruginosa; 54 clinical isolates, broth microdilution test): 4 µg/mL (≈ 7.06 µM); MIC50 [28]: 16 µg/mL (≈ 28.2 µM); MIC90 ([28]; read-out: MIC 90%): 32 µg/mL (≈ 56.5 µM); MIC50 (Escherichia coli): 0.063 µg/mL (≈ 0.111 µM); MIC90 (Escherichia coli): 0.25 µg/mL (≈ 0.441 µM); MIC90 [29]: 0.5 µg/mL (≈ 0.882 µM); MIC50 ([29]; methicillin susceptible, 42 clinical isolates, broth microdilution test): 0.5 µg/mL (≈ 0.882 µM)

Source: patent US5202315A, “Cephalosporin compounds” (Lucky, Ltd., priority 1989, dated 1993)
